# In patent US12370170B2, “Composition comprising naphthoquinone-based compound as active ingredient, for preventing or ameliorating fatigue, cachexia, pain, cognitive decline and hematopoietic stem cell reduction which are side effects related to anticancer drug treatment” (NADIANBIO LTD., priority 2016, dated 2025):
# What was measured:
# Type in all cases: in vivo, C57BL/6 mice
# [1] = Muscle loss (body weight, gastrocnemius muscle weight) in 3×ACP animal model; conditions: 3×ACP i.p. once; dunnione 20 mg/kg oral daily from 3 days before; 2 and 4 days after ACP
# Method: (§1) In this invention, 11 weeks old C57BL/6 mice were used. All the mice used in the experiments of the invention were raised in an aseptic animal room at the temperature of 22˜26 L with the humidity of 55˜60%. The mice were allowed to take general solid feed (SAMTACO Co., Ltd., Korea) and water freely. The mice were adapted for 1 week before the experiment. All the experiments were performed after obtaining approval from the clinical trial management committee in accordance with the laboratory animal care and ethics regulations of Wonkwang University. The mouse animal model of the present invention was treated with different anticancer drugs. Particularly, one kind of anticancer drug was administered intraperitoneally one time or more, or several kinds of anticancer drugs were administered once or more times or at different concentrations, leading to the establishment of the animal model of the invention. […]
# To investigate the regulatory effect of dunnione on muscle loss in the 3×ACP animal models prepared by the same manner as described in Example 6, the changes of body weight and gastrocnemius muscle weight were measured after the drug treatment.
# [2] = Muscle loss (body weight, gastrocnemius muscle weight) in cyclophosphamide induced animal model; conditions: cyclophosphamide 150 mg/kg+200 mg/kg i.p.; dunnione 20 mg/kg oral daily from 3 days before; 48 hours after
# Method: as §1
# In the cyclophosphamide (150 mg/kg+200 mg/kg) induced animal model prepared by the same manner as described in Example 9, the changes of body weight and gastrocnemius muscle weight were measured after the drug treatment in order to investigate the regulatory effect of dunnione on muscle loss.
# [3] = test system: bone marrow cells and hematopoietic stem/progenitor cells; assay: Bone marrow hematopoietic stem cell reduction by flow cytometry, 3×ACP animal model; conditions: 2 days after ACP
# Method: In this invention, 11 weeks old C57BL/6 mice were used. All the mice used in the experiments of the invention were raised in an aseptic animal room at the temperature of 22˜26 L with the humidity of 55˜60%. The mice were allowed to take general solid feed (SAMTACO Co., Ltd., Korea) and water freely. The mice were adapted for 1 week before the experiment. All the experiments were performed after obtaining approval from the clinical trial management committee in accordance with the laboratory animal care and ethics regulations of Wonkwang University. The mouse animal model of the present invention was treated with different anticancer drugs. Particularly, one kind of anticancer drug was administered intraperitoneally one time or more, or several kinds of anticancer drugs were administered once or more times or at different concentrations, leading to the establishment of the animal model of the invention. In the adriamycin-induced animal model, the mice were divided into 6 groups as follows: the control group administered with PBS (Control, 5 mice), the group administered intraperitoneally with adriamycin (4 mg/kg/day) 3 times (ADR, 5 mice), the group administered orally with dunnione or β-lapachone from 3 days before the adriamycin treatment daily (20 mg/kg, 5 mice), and the group administered with dunnione or β-lapachone (20 mg/kg, 5 mice). 4 days after the final adriamycin treatment, analysis of the mice was performed.
# In the 3×ACP induced animal model for the analysis of bone marrow hematopoietic stem cell protective effect, the mice were divided into 4 groups as follows: the control group administered with PBS (Control, 4 mice), the group administered intraperitoneally with 3×ACP once (3×ACP, 4 mice), the group administered orally with dunnione from 3 days before the 3×ACP treatment daily (20 mg/kg, 4 mice), and the group administered with dunnione (20 mg/kg, 4 mice). 2 days after the ACP treatment, analysis of the mice was performed. […]
# As a result, as shown in FIG. 9 presenting the results of flow cytometry for the quantitative analysis of bone marrow hematopoietic cells, the region where lineage negative cells were distributed was gated. […] Next, hematopoietic stem cells and multipotent progenitor cells were separated and analyzed, leading to the analysis of multipotent progenitor cell-4 (MPP4) and hematopoietic stem cell/progenitor cell (HSPC). With the hematopoietic stem cell/progenitor cell group, long-term hematopoietic stem cells (HSC^LT), short-term hematopoietic stem cells (HSC^ST), and multipotent progenitor cell-2 and -3 (MPP2 and MPP3) were analyzed. In FIG. 9, the results of flow cytometry analyzed for each group are presented. […]
smiles,measurement,setting,value
"CC1OC2=C(C(=O)C(=O)c3ccccc32)C1(C)C (centres unmarked) [dunnione, 2,3-dihydro-2,3,3-trimethyl naphtho [1,2-b]furan-4,5-dione]",reduction of gastrocnemius muscle weight and gastrocnemius muscle weight change,[1],significantly restored
same,weight loss (body weight),[1],significantly restored
same,reduction of gastrocnemius muscle weight and gastrocnemius muscle weight change,[2],significantly restored
same,weight loss (body weight),[2],significantly restored
same,"total bone marrow cell number, increase relative to the group treated with the anticancer drugs",[3]; 3×ACP + dunnione 20 mg/kg oral daily from 3 days before,at least three times
same,"number of hematopoietic stem cell/progenitor cell, increase by dunnione",[3]; 3×ACP + dunnione 20 mg/kg oral,as much as three times
same,"number of long-term hematopoietic stem cells (HSC^LT), increase relative to the group treated with the anticancer drugs",[3]; 3×ACP + dunnione 20 mg/kg oral,at least 2 times
same,"number of short-term hematopoietic stem cells (HSC^ST), increase relative to the group treated with the anticancer drugs",[3]; 3×ACP + dunnione 20 mg/kg oral,≥ 8 times
